Source: PubChem BioAssay (NCI)
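Cultured in 96-well plates, cells were exposed to test compound for 48 hours across five concentrations. Here, GI50 denotes the concentration required for 50% inhibition of growth. The concentration for full growth arrest is given as TGI.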

Key:
Assay in all cases: NCI anticancer screen, dose series, 48 h
SF-539 CNS = test system: SF-539 CNS
UO-31 renal = test system: UO-31 renal
SK-MEL-28 melanoma = test system: SK-MEL-28 melanoma
HCC-2998 colon = test system: HCC-2998 colon
HCT-116 colon = test system: HCT-116 colon
OVCAR-3 ovarian = test system: OVCAR-3 ovarian
MALME-3M melanoma = test system: MALME-3M melanoma
LOX IMVI melanoma = test system: LOX IMVI melanoma
SN12C renal = test system: SN12C renal
NCI-H460 lung = test system: NCI-H460 lung

CC1C(=O)N(C)C2(CO)C(=O)O[C@H](C)C12O (stereo partly drawn)
TGI (SF-539 CNS): > 100 µM | TGI (UO-31 renal): > 100 µM | TGI (SK-MEL-28 melanoma): > 100 µM | TGI (HCC-2998 colon): > 100 µM | TGI (HCT-116 colon): > 100 µM | TGI (OVCAR-3 ovarian): > 100 µM | TGI (MALME-3M melanoma): > 100 µM

CC[C@H](C)C(=O)O[C@H]1CCC=C2C=C[C@H](C)C(CCC3C[C@@H](O)CC(=O)O3)[C@H]21 (stereo partly drawn)
GI50 (SF-539 CNS): 83.2 µM | TGI (SF-539 CNS): > 100 µM | GI50 (SK-MEL-28 melanoma): 84.9 µM | TGI (SK-MEL-28 melanoma): > 100 µM | GI50 (HCC-2998 colon): 33 µM | TGI (HCC-2998 colon): > 100 µM | GI50 (HCT-116 colon): 2.99 µM | TGI (HCT-116 colon): 62.1 µM | TGI (OVCAR-3 ovarian): > 100 µM | GI50 (LOX IMVI melanoma): 0.965 µM | TGI (LOX IMVI melanoma): > 100 µM | GI50 (SN12C renal): 3.5 µM | TGI (SN12C renal): > 100 µM | GI50 (NCI-H460 lung): 4.9 µM | TGI (NCI-H460 lung): > 100 µM

CCCC(=O)NNc1[nH]c(-c2ccc(OC)cc2)cc1C(=O)OCC
GI50 (SF-539 CNS): 19.3 µM | TGI (SF-539 CNS): 37 µM | GI50 (UO-31 renal): 19.9 µM | TGI (UO-31 renal): 37.8 µM | GI50 (SK-MEL-28 melanoma): 12.7 µM | TGI (SK-MEL-28 melanoma): 25.6 µM | GI50 (HCT-116 colon): 37.2 µM | TGI (HCT-116 colon): > 100 µM | GI50 (OVCAR-3 ovarian): 15.5 µM | TGI (OVCAR-3 ovarian): 31.1 µM | GI50 (LOX IMVI melanoma): 16.8 µM | TGI (LOX IMVI melanoma): 30.5 µM | GI50 (SN12C renal): 17.1 µM | TGI (SN12C renal): 30.9 µM | GI50 (MALME-3M melanoma): 14.5 µM | TGI (MALME-3M melanoma): 29.2 µM | GI50 (NCI-H460 lung): 46.6 µM | TGI (NCI-H460 lung): > 100 µM

C[C@]12CCC(=O)C=C1CC[C@@H]1[C@@H]2CC[C@]2(C)C(=O)/C(=C/c3cccc(OCCN4CCOCC4)c3)C[C@@H]12
GI50 (SF-539 CNS): 10.5 µM | TGI (SF-539 CNS): 23.7 µM | GI50 (UO-31 renal): 12.1 µM | TGI (UO-31 renal): 30 µM | GI50 (SK-MEL-28 melanoma): 11.9 µM | TGI (SK-MEL-28 melanoma): 29.8 µM | GI50 (HCT-116 colon): 3.14 µM | TGI (HCT-116 colon): 13.4 µM | GI50 (OVCAR-3 ovarian): 3.91 µM | TGI (OVCAR-3 ovarian): 16 µM | GI50 (LOX IMVI melanoma): 9.44 µM | TGI (LOX IMVI melanoma): 26.6 µM | GI50 (SN12C renal): 16.7 µM | TGI (SN12C renal): 63.6 µM | GI50 (MALME-3M melanoma): 14.7 µM | TGI (MALME-3M melanoma): 36 µM | GI50 (NCI-H460 lung): 7.11 µM | TGI (NCI-H460 lung): 30.1 µM

CC(=O)Nc1ccc(/C=C/C(=O)c2sc(C(N)=S)nc2C)cc1
TGI (SF-539 CNS): > 100 µM | TGI (UO-31 renal): > 100 µM | TGI (SK-MEL-28 melanoma): > 100 µM | TGI (HCC-2998 colon): > 100 µM | TGI (OVCAR-3 ovarian): > 100 µM | TGI (LOX IMVI melanoma): > 100 µM | TGI (SN12C renal): > 100 µM | TGI (MALME-3M melanoma): > 100 µM | TGI (NCI-H460 lung): > 100 µM

CC(C)=CCC/C(C)=C/CC/C(=C/COP(=O)(OCc1ccc([N+](=O)[O-])o1)N(C)CCCCCl)C(C)(C)C (stereo not drawn)
GI50 (SF-539 CNS): 4.25 µM | TGI (SF-539 CNS): 10.6 µM | GI50 (UO-31 renal): > 23.3 µM | TGI (UO-31 renal): > 44.1 µM | GI50 (SK-MEL-28 melanoma): 17.1 µM | TGI (SK-MEL-28 melanoma): 37.5 µM | GI50 (HCC-2998 colon): 0.0486 µM | TGI (HCC-2998 colon): 2.29 µM | GI50 (HCT-116 colon): 2.04 µM | TGI (HCT-116 colon): 11.8 µM | GI50 (OVCAR-3 ovarian): 1.94 µM | TGI (OVCAR-3 ovarian): 3.66 µM | GI50 (LOX IMVI melanoma): 1.28 µM | TGI (LOX IMVI melanoma): 4.68 µM | GI50 (SN12C renal): 2.6 µM | TGI (SN12C renal): 7.27 µM | GI50 (NCI-H460 lung): 5 µM | TGI (NCI-H460 lung): 11.5 µM

Cc1ccc(C2=NO[C@@H]3C(=O)N(c4ccc(Cc5ccc(N6C(=O)[C@H]7C(c8ccc(C)cc8)=NO[C@H]7C6=O)cc5)cc4)C(=O)[C@H]23)cc1
TGI (SF-539 CNS): > 100 µM | TGI (UO-31 renal): > 100 µM | TGI (SK-MEL-28 melanoma): > 100 µM | TGI (HCC-2998 colon): > 100 µM | TGI (OVCAR-3 ovarian): > 100 µM | TGI (LOX IMVI melanoma): > 100 µM | TGI (SN12C renal): > 100 µM | TGI (MALME-3M melanoma): > 100 µM | TGI (NCI-H460 lung): > 100 µM

CCCCCCCCCCCC(=O)OCC1OC(n2cc(F)c(=O)[nH]c2=O)C(N)C(O)C1O (stereo not drawn)
TGI (SF-539 CNS): > 100 µM | TGI (UO-31 renal): > 100 µM | TGI (SK-MEL-28 melanoma): > 100 µM | TGI (HCC-2998 colon): > 100 µM | TGI (HCT-116 colon): > 100 µM | TGI (OVCAR-3 ovarian): > 100 µM | TGI (SN12C renal): > 100 µM | TGI (MALME-3M melanoma): > 100 µM | TGI (NCI-H460 lung): > 100 µM
